Laboratory results published in article PMC8279484 (Journal of Medicinal Chemistry, 2021).
pEC50, pIC50: −log10 of the molar value.

Legend:
Type in all cases: cell-based, human
[1] = system: THP-1-MF0 macrophage; test: Phagocytosis of fluorescent E. coli bioparticles by THP-1-MF0 macrophages
Procedure: Mycoplasma-free THP-1 monocytes were grown in an RPMI 1640 (Gibco) medium containing 2 mM L-glutamine, 2.00 g/L sodium bicarbonate, and 2.00 g/L glucose. Then, 10% (v/v) heat-inactivated FBS (30 min at 56 °C) and Pen-Strep (100 U/mL to 100 μg/mL) were supplemented to the growth media.
Cell adherence was allowed for 1 h and 30 min at 37 °C/5% CO2. Cells were then treated for 30 min with controls and phagocytosis effectors for testing (vehicle, LXs, Rvs, or sLXms). Subsequently, media containing controls/effectors were vacuum-aspirated and replaced with a solution containing fluorescently prelabeled E. coli-derived bioparticles and cells were incubated in the dark for 2 h at 37 °C/5% CO2 to allow particle ingestion by monocytes/macrophages. After that, media containing bioparticles were vacuum-aspirated and replaced with a solution containing trypan blue and cells were incubated for 1 min at room temperature to allow quenching of unbound particles to ensure specificity of the fluorescent signal, deriving only from ingested particles (not shown). After aspiration of Trypan, the fluorescence reading was immediately performed at the following conditions: end point; reading from the bottom of the plate; Ex.480/Em.520 nm.

[2] = system: THP-1 LUCIA monocytes; test: In vitro safety study: Safety index (Si), activity versus toxicity
Procedure: A postanalysis “safety study” was conducted on all QNX-sLXms. For each tested compound, we calculated an in vitro “Safety index” (Si) by relating its “anti-inflammatory half-maximal activity” (the highest dose among the IC50 of the extrinsic LPS-challenged phenotype: NF-κB activity, proinflammatory cytokine, and LDH release) to its intrinsic “toxicity” (expressed as the relative half-maximal LDH-associated cytotoxicity). The generated Si is potentially predictive of a translational “therapeutic” range: the higher the Si, the safer the molecule is. As summarized in Table S4, Si values from all tested compounds fall in a broad range (7–50).

[3] = system: THP-1 LUCIA monocytes; test: Intrinsic cytotoxicity: LDH release without LPS
Procedure: We investigated the potential cytotoxicity of all candidate sLXms by assaying LDH release.[50] The response to LPS was arbitrarily set to 100%, and values were expressed relative to this. As previously reported by others, LPS provokes LDH release.[51] […] Ultimately, untreated cells defined the spontaneous cell release thresholds.
Lactate dehydrogenase (LDH) was assayed in cell supernatants to investigate possible cytotoxicity of the lead compound. LDH is rapidly released into the culture medium after disruption of the plasma membrane.[67],[69] After 24 h of exposure to sLXms, vehicle, or controls, followed by LPS stimulation, as described above, THP-1-Lucia NF-κB-cell supernatants were collected and LDH was assayed. Cytotoxicity was evaluated relative to vehicle controls. Maximum releasable LDH was determined in cells lysed with 2% Triton-X-100 (Sigma-Aldrich, Ireland). LDH levels were assessed by reading the absorbance at 490 nm (protein) and 690 nm (background noise), using a spectrophotometer (SPECTRAMAX M2, Molecular Devices (U.K.) Limited).

[4] = system: NF-κB; test: LPS-induced NF-κB-driven luciferase gene reporter assay in THP-1 Lucia monocytes
Procedure: Mycoplasma-free THP-1-Lucia NF-κB cells were grown in an RPMI 1640 (Gibco) medium containing 2 mM L-glutamine, 1.50 g/L sodium bicarbonate, 4.50 g/L glucose, 10 mM N-(2-hydroxyethyl)piperazine-N′-ethanesulfonic acid (HEPES), and 1 mM sodium pyruvate. Then, 10% heat-inactivated fetal bovine serum (FBS) (30 min at 56 °C), 100 μg/mL Normocin, and Pen-Strep (50 U/mL to 50 μg/mL) were also added to the growth media. As THP-1-Lucia cells were resistant to Zeocin, the latter was used as a selective antibiotic (a high dose, i.e., 100 μg/mL, was alternated every 2 weeks with a low dose, i.e., 10 μg/mL).
LXA41 and all of the tested sLXms were dissolved in ethanol and further diluted in a culture medium (final ethanol concentration 0.1%; equivalent concentrations were used as the vehicle control). Prior to in vitro experiments, THP-1-Lucia NF-κB cells were harvested and plated at 1 × 10^5 cells/well on 96-well plates and left to settle in the incubator at 37 °C, 95% humidity, and 5% CO2, in 0.1% FBS-containing media, pretreated for 30 min with increasing doses of LXA41, sLXms (from 10^–12 to 10^–6 M), or appropriate controls, followed by stimulation with 50 ng/mL LPS for 24 h.
NFκB activity was monitored in the human THP-1 monocytic leukemia cell line containing a stably integrated NF-κB-inducible Lucia reporter construct (as previously reported).[21] When stimulated with LPS, the transcription factor NF-κB is activated, upregulating the synthesis of proinflammatory mediators, thus bringing about an inflammatory response. In these cells, NF-κB activation is linked to a […] luciferase gene and can be measured using luminescence.
Heat-killed listeria monocytogenes (HKLM) (10^8/mL) was used as a positive control.[28] The levels of NF-κB-induced Luciferase were then measured in a culture supernatant using QUANTI-Luc as the detection reagent, and measurements were taken on a bioluminescence reader.
After 24 h, the levels of NF-κB-induced Lucia were assayed in a cell culture supernatant using QUANTI-Luc, as a detection reagent, on a bioluminescence reader (Synergy HT, BioTek Instruments, Inc. Vermont). Aliquots of the supernatant were retained for subsequent cytokine and LDH assays. Cellular proteins were extracted with a radioimmunoprecipitation assay (RIPA) buffer (Thermo Fisher, Ireland), supplemented with protease inhibitors (Sigma-Aldrich, Ireland). Lysates were clarified by centrifugation (3200g, 10’, 4 °C) to remove cell debris, and the cell protein level was quantified by performing a bicinchoninic acid (BCA) assay (as per the manufacturer’s instructions) reading the protein absorbance at 570 nm, using a spectrophotometer (SPECTRAMAX M2, Molecular Devices (U.K.) Limited). A “relative luminescence unit” (RLU) was obtained using the average value of the lum/abs ratio of two replicates.
The “coding” of the heat-map indicates the arbitrary criteria to assign points to each single PD component (efficacy = Imax or Emax; potency = IC50 or EC50; slope = HS) to generate a final (aggregate) relative PD score. […] If a single PD component was equal to the reference level (x = 1), then the single-component relative score was arbitrarily set to 0 (gray). If a single PD component was smaller than the reference level (x < 1), then the single-component relative score was arbitrarily set to −1 (light red) or −2 (dark red). If the curve of a single PD component was best fitting to a flat line (x = 0), then the single-component relative score was arbitrarily set to −4 (purple) (Table S1).

Row | Structure (SMILES) | pEC50 ([1]; 30 min pretreatment, 2 h bioparticles, read-out: Potency EC50) | (Aggregate) Rel. PD Score ([1]; relative to LXA4 (1)) | Potency Rel. Pot. ([1]; relative to LXA4 (1)) | Single comp. score Rel Eff. ([1]; relative to LXA4 (1)) | pIC50 ([2]; Homo sapiens, THP-1, highest IC50 among the LPS-challenged assays (NF-κB activity, cytokine, LDH release), read-out: Extrinsic Activity hIC50) | Safety Index TC50/IC50 ([2]; ratio of intrinsic TC50 to extrinsic hIC50) | Intrinsic Toxicity Level ([3]; LDH-associated level of cytotoxicity (high / moderate / low)) | Intrinsic Toxicity TC50 (pM) ([3]; half-maximal intrinsic LDH-associated toxic activity, no LPS) | Rel. Slope ([4]; HS relative to LXA4 (1)) | pIC50 ([4]; Homo sapiens, THP-1, LPS 50 ng/mL, 24 h, read-out: Potency IC50) | Potency Rel. Pot. ([4]; IC50 relative to LXA4 (1)) | Efficacy Rel. Eff. ([4]; Imax relative to LXA4 (1)) | IC50 (range in words) ([4]; LPS 50 ng/mL, 24 h) | reduction of LPS-induced NF-κB-driven luciferase activity ([4]; approximate extent, 1 pM–1 μM) | (Single component) Rel. Score: Rel. Pot. ([4]; score relative to LXA4 (1)) | (Single component) Rel. Score: Rel. Sl. ([4]; score relative to LXA4 (1)) | Slope HS (Hill–Slope) ([4]; slope of concentration–response curve) | (Aggregate) Rel. PD Score ([4]; sum of efficacy, potency, slope scores relative to LXA4 (1)) | Single comp. score Rel. Pot. ([1]; relative to LXA4 (1))
1 | CCCCC[C@H](O)[C@H](O)/C=C/C=C/C=C\C=C\[C@@H](O)CCCC(=O)O [LXB4] | 8.30 | -2 | 1 | -2 |  |  |  |  |  |  |  |  |  |  |  |  |  |  | 
2 | CCC[C@H](O)c1nc2ccccc2nc1/C=C/[C@@H](O)[C@@H](O)CCCC(=O)OC [(S)-7, Methyl (5S,6R,E)-5,6-Dihydroxy-8-(3-((S)-1-hydroxybutyl)quinoxalin-2-yl)oct-7-enoate] |  |  |  |  | 7.82 | 7 | Low-Mod. | 110,000 pM | 0.60 | 9.00 | 0.1 | 1.50 | “nM” range | 30–35% | -2 (x < 0.1) | -1 (0.01 < x < 1) | -6 | -1 | 
3 | CC/C=C\C[C@H](O)/C=C/C=C\C=C\C=C\[C@@H](O)[C@@H](O)C/C=C\CCC(=O)O [RvD1] |  | 1 | 10000 |  |  |  |  |  |  |  |  |  |  |  |  |  |  |  | 2 (x ≥ 5)
